As usually defined, the Ki is the dissociation constant of the complex between target and ligand, obtained from inhibition or displacement.

Read-outs that look alike come from different tables or passages of the source.

Here are results for 25 molecules from patent publication US20030044399A1, “Method of treatment” (SmithKline Beecham Corporation, priority 1998, published 2003).

Assay [1] addresses Rhodazain (Trypanosoma brucei rhodesiense, UniProt Q95PM0). Put plainly: Cysteine protease inhibition, progress curve method, rhodazain. The assay is classed as biochemical, Trypanosoma brucei rhodesiensi. The conditions noted are these: 10 uM Cbz-Leu-Arg-AMC, 100 mM Na acetate pH 5.5, 5 mM cysteine. The procedure: (§1) Standard assay conditions for the determination of kinetic constants used 10 uM fluorogenic peptide substrate, Cbz-Phe-Arg-AMC for the cysteine proteases from Leishmania spp and Schistosoma Mansoni, Cbz-Leu-Arg-AMC for the cysteine proteases from Plasmodium falciparum and Trypanosoma brucei rhodesiensi, and Ac-Lys-Glu-Lys-Leu-Arg-AMC (4 uM final substrate concentration) for the cysteine protease from Trypoanosoma cruzi, and were determined in 100 mM Na acetate at pH 5.5 containing 5 mM cysteine. Stock substrate solutions were prepared at concentrations of […] in DMSO with 10 uM (4 uM for Ac-Lys-Glu-Lys-Leu-Arg-AMC) final substrate concentration in the assays. The final DMSO concentration was 2% and the final volume was 100 uL. All assays were conducted at ambient temperature. Product progress curves were generated over 20 to 30 minutes following formation of AMC product.
(§2) Potential inhibitors were evaluated using the progress curve method. Assays were carried out in the presence of variable concentrations of test compound. Reactions were initiated by addition of enzyme to buffered solutions of inhibitor and substrate. Data analysis was conducted according to one of two procedures depending on the appearance of the progress curves in the presence of inhibitors. For those compounds whose progress curves were linear, apparent inhibition constants (Ki,app) were calculated according to equation 1 (Brandt et al., Biochemitsry, 1989, 28, 140):
(§3) v=VmA/[Ka(1+I/Ki,app)+A] (1)
(§4) Where v is the velocity of the reaction with maximal velocity Vm, A is the concentration of substrate with Michaelis constant of Ka, and I is the concentration of inhibitor.
(§5) [AMC]=vsst+(v0−vss)[1−exp (−kobst)]/kobs (2)
(§6) Where [AMC] is the concentration of product formed over time t, v0 is the initial reaction velocity and vss is the final steady state rate. Values for kobs were then analyzed as a linear function of inhibitor concentration to generate an apparent second order rate constant (kobs/inhibitor concentration or kobs/[I]) describing the time-dependent inhibition. A complete discussion of this kinetic treatment has been fully described (Morrison et al., Adv. Enzymol. Relat. Areas Mol. Biol., 1988, 61, 201).
(§7) Exemplary inhibition data for the compounds used in the present method collected in accordance with the above-described procedure are listed in Table I.

The target in assay [2] is Cruzain (Trypanosoma cruzi, UniProt P25779). Put plainly: Cysteine protease inhibition, progress curve method, cruzain. The assay is classed as biochemical. Particulars: 4 uM Ac-Lys-Glu-Lys-Leu-Arg-AMC, 100 mM Na acetate pH 5.5, 5 mM cysteine. The procedure: as §1, §2, §3, §4, §5, §6, §7
Cruzain, sequence (P25779 123-337): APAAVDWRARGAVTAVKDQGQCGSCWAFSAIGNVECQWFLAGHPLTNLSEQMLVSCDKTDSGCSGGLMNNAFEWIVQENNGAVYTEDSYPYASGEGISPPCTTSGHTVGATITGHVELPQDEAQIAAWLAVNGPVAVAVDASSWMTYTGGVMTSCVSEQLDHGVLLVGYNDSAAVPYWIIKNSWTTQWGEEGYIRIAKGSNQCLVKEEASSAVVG

Rhodazain, sequence (Q95PM0 entry or part of it): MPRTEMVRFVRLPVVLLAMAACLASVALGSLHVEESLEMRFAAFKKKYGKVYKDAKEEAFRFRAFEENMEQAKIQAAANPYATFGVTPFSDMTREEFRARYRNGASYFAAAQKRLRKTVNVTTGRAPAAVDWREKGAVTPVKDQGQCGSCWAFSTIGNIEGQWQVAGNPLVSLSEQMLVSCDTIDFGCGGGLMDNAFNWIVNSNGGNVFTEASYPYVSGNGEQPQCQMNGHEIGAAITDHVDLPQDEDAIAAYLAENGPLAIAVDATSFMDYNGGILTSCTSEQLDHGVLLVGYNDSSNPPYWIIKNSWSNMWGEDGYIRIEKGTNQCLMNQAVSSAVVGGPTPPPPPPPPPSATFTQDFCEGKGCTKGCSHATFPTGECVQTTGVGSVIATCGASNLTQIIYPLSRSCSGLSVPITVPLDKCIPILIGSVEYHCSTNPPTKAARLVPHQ

On to `O=C(N[C@H](CC1CCCCC1)C(=O)N[C@@H]1CCCN(S(=O)(=O)c2ccccn2)CC1=O)c1cc2ccccc2o1` (stereo in doubt) [Example 102, Benzofuran-2-carboxylic acid {(S)-2-cyclohexyl-1-[3-oxo-1-(pyridine-2-sulfonyl)-azepan-4-ylcarbamoyl]-ethyl}-amide], for which the Ki in assay [1] (Rhodazain Ki (nM)) came to 3.7 nM. As to `COc1ccc(CC(=O)N[C@@H](CC(C)C)C(=O)NC2CCCN(S(=O)(=O)c3ccccn3)CC2=O)cc1OCc1ccccc1` (stereo partly shown) [Example 123], the inhibition constant (Ki) in assay [1] (Rhodazain Ki (nM)) was found to be 31 nM. On the same count and under the same terms, under `CC(C)C[C@H](NC(=O)c1cc2ccccc2o1)C(=O)N[C@@H]1CCCN(S(C)(=O)=O)CC1=O` [Example 112, Benzofuran-2-carboxylic acid-{(S)-1-(1-methanesulfonyl-3-oxo-azepan-4-ylcarbamoyl)-3-methyl-butyl]-amide] stands 8.5 nM. For the molecule “Naphthyridine-2-carboxylic acid {(S)-3-methyl-1-[3-oxo-1-(pyridine-2-sulfonyl)-azepan-4-ylcarbamoyl]-butyl}-amide [Example 177]”, the Ki in assay [1] (read-out: Rhodazain Ki) is 9 nM.

`CC(C)C[C@H](NC(=O)c1nc(-c2ccccc2)oc1C(F)(F)F)C(=O)NC1CCCN(S(=O)(=O)c2ccccn2)CC1=O` (stereo partly drawn) [Example 72, 2-Phenyl-5-trifluoromethyl-oxazole-4-carboxylic acid {(S)-3-methyl-1-[3-oxo-1-(pyridine-2-sulfonyl)-azepan-4-ylcarbamoyl]-butyl}amide] gave a Ki in assay [1] (Rhodazain Ki (nM)) of 9.9 nM. The same measure, in the same setting: under `CC(C)C[C@@H](NC(=O)c1ccc2ccccc2c1)C(=O)N[C@@H]1CCCN(S(=O)(=O)c2ccccn2)CC1=O` (stereo in doubt) [Example 17, Naphthalene-2-carboxylic acid {(S)-3-methyl-1-[3-oxo-1-(pyridine-2-sulfonyl)-azepan-4-ylcarbamoyl]butyl}-amide] stands 8.3 nM. Consider `COc1ccc2c(C)c(C(=O)N[C@@H](CC(C)C)C(=O)N[C@H]3CCN(S(=O)(=O)c4cccc[n+]4[O-])CCC3=O)oc2c1` [Example 204, 6-Methoxy-3-methyl-benzofuran-2-carboxylic acid {(S)-3-methyl-1-[3-oxo-1-(1-oxy-pyridine-2-sulfonyl)-azepan-4-ylcarbamoyl]-butyl}-amide], for which, in assay [1] (Rhodazain Ki (nM)), the Ki was found to be 4.5 nM. For the molecule `COc1cccc2oc(C(=O)N[C@@H](CC(C)C)C(=O)N[C@H]3CCN(S(=O)(=O)c4cccc[n+]4[O-])CCC3=O)c(C)c12` [Example 203, 4-Methoxy-3-methyl-benzofuran-2-carboxylic acid {(S)-3-methyl-1-[3-oxo-1-(1-oxy-pyridine-2-sulfonyl)-azepan-4-ylcarbamoyl]-butyl}-amide], in assay [2] (read-out: Cruzain Ki), the Ki was found to be 20 nM. Still for that read-out and setting: under `CC(C)C[C@@H](NC(=O)c1cc2cc(OCCN3CCCC3)ccc2o1)C(=O)N[C@@H]1CCCN(S(=O)(=O)c2ccccc2)CC1=O` (stereo in doubt) [Example 8, 5-(2-Pyrrolidin-1-yl-ethoxy)-benzofuran-2-carboxylic acid [(S)-1-(1-benzenesulfonyl-3-oxo-azepan-4-ylcarbamoyl)-3-methyl-butyl]amide] stands 8 nM; under “4-[2-(2-{(S)-3-Methyl-1[3-oxo-1-(pridine-2-sulfonyl)-azepan-4-ylcarbamoyl]-butylcarbamoyl}-benzofuran-5-yloxy)-ethyl]-piperazine-1-carboxylic acid tert-butyl ester [Example 22]”, 14 nM; under `CCCC[C@H](NC(=O)c1cc2ccccc2o1)C(=O)NC1CCCN(S(=O)(=O)c2ccccn2)CC1=O` (stereo partly drawn) [Example 103, Benzofuran-2-carboxylic acid{(S)-1-[3-oxo-1-(pyridine-2-sulfonyl)-azepan-4-ylcarbamoyl]-pentyl}-amide], 60 nM. Same read-out and setting: under `CC(C)C[C@@H](NC(=O)c1cc2cc(F)c(F)cc2o1)C(=O)N[C@H]1CCCN(S(=O)(=O)c2cccc[n+]2[O-])CC1=O` [Example 163, 5,6-Difluoro-benzofuran-2-carboxylic acid {(S)-3-methyl-1-[3-oxo-1-(1-oxy-pyridine-2-sulfonyl)-azepan-4-ylcarbamoyl]-butyl}amide] stands 13 nM; under `CC(C)C[C@@H](NC(=O)c1cc2cc(OCCN3CCOCC3)ccc2o1)C(=O)N[C@@H]1CCCN(S(=O)(=O)c2ccccn2)CC1=O` (single isomer, unassigned) [Example 19], 2 nM. Still for that read-out and setting: under `CC(C)CC(NC(=O)NCc1ccccc1)C(=O)NC1CCCN(S(=O)(=O)c2ccccn2)CC1=O` [Example 80, (S)-2-(3-Benzyl-ureido)-4-methyl-pentanoic acid [3-oxo-carboxylic-(pyridine-2-sulfonyl)azepan4-yl]-amide] stands 15 nM; under `CC(C)C[C@@H](NC(=O)c1cc2cc(OCCN3CCOCC3)ccc2o1)C(=O)N[C@@H]1CCCN(S(=O)(=O)c2ccccn2)CC1=O` (single isomer, unassigned) [Example 20], 8 nM; under `CC(C)C[C@@H](NC(=O)c1nccc2ccccc12)C(=O)N[C@@H]1CCCN(S(=O)(=O)c2ccccn2)CC1=O` (stereo in doubt) [Example 29, Isoquinoline-1-carboxylic acid {(S)-3-methyl-1-[3-oxo-1-(pyridine-2-sulfonyl)-azepan-4-ylcarbamoyl]-butyl}amide], 11 nM. Take `CC(C)C[C@H](NC(=O)c1cnc2ccccc2n1)C(=O)N[C@@H]1CCCN(S(=O)(=O)c2cccs2)CC1=O` [Example 147, Quinoxaline-2-carboxylic acid-{(S)-3-methyl-1-[3-oxo-1-(thiophene-2-sulfonyl)-azepan-4-ylcarbamoyl]-butyl}-amide]: the Ki in assay [2] (read-out: Cruzain Ki) was 7.5 nM.

Regarding `CC(C)C[C@H](NC(=O)c1ccc2ccccc2n1)C(=O)NC1CCCN(Cc2ccccc2)CC1=O` (stereo partly drawn) [Example 2, Quinoline-2-carboxylic acid [(S)-1-(1-benzyl-3-oxo-azepan-4-ylcarbamoyl)-3-methyl-butyl]amide], the inhibition constant (Ki) in assay [2] (read-out: Cruzain Ki) is 44 nM.

Take `CC(C)C[C@@H](NC(=O)c1cc2cc(OCCN3CCOCC3)ccc2o1)C(=O)NC1CCCN(S(=O)(=O)c2cccc[n+]2[O-])CC1=O` (stereo partly drawn) [Example 56, 5-(2-Morpholin-4-yl-ethoxy)-benzofuran-2-carboxylic acid {(S)-3-methyl-1-[3-oxo-(1-oxy-pyridine2-sulfonyl)-azepan-4-ylcarbamoyl]-buty}-amide]: the inhibition constant Ki in assay [2] (read-out: Cruzain Ki) turned out to be 7.8 nM. Turning to `CC(C)C[C@@H](NC(=O)c1cc2ccccc2[nH]1)C(=O)N[C@@H]1CCCN(S(=O)(=O)c2ccccn2)CC1=O` (stereo in doubt) [Example 32, 1H-Indole-2-carboxylic acid {(S)-3-methyl-1-[3-oxo-1-(pyridine-2-sulfonyl)-azepan-4-ylcarbamoyl]-butyl}amide], in assay [2] (read-out: Cruzain Ki), the Ki amounted to 17 nM.

Take `CC(C)C[C@H](NC(=O)c1cc2ccccc2s1)C(=O)NC1CCCN(S(C)(=O)=O)CC1=O` (stereo partly drawn) [Example 111, Benzo[b]thiophene-2-carboxylic acid-{(S)-1-(1-methanesulfonyl-3-oxo-azepan-4-ylcarbamoyl)-3-methyl-butyl]-amide]: the inhibitory constant (Ki) in assay [2] (read-out: Cruzain Ki) is 18 nM. With `CC(C)C[C@@H](NC(=O)c1cc2cc(OCCN3CCOCC3)ccc2o1)C(=O)N[C@@H]1CCCN(S(=O)(=O)c2ccccc2)CC1=O` (stereo in doubt) [Example 6, 5-(2-Morpholin-4-yl-ethoxy)-benzofuran-2-carboxylic acid [(S)-1-(1-benzenesulfonyl-3-oxo-azepan-4-ylcarbamoyl)-3-methyl-butyl]amide], the inhibition constant (Ki) in assay [2] (read-out: Cruzain Ki) was 21 nM. As to `CC(C)C[C@H](NC(=O)c1cnc2ccccc2n1)C(=O)N[C@H]1CCCN(S(=O)(=O)c2ccccc2F)CC1=O` [Example 96, Quinoxaline-2-carboxylic acid-{(S)-1-[1-(2-fluoro-benzenesulonyl)-3-oxo-azepan-4-ylcarbamoyl]-3-methyl-butyl}-amide], the Ki in assay [2] (read-out: Cruzain Ki) is 8.7 nM. As to `Cc1c(C(=O)NC(CC(C)C)C(=O)NC2CCCN(S(=O)(=O)c3cccc[n+]3[O-])CC2=O)oc2ccc3ccccc3c12` [Example 210, 1-methyl-naphtho[2,1-b]-furan-2-carboxylic acid {(S)-3-methyl-1-[3oxo-1-(1-oxy-pyridine-2-sulfonyl)-azepan-4-ylcarbamoyl]-butyl}-amide], the inhibition constant (Ki) in assay [2] (Cruzain Ki nM) is 6.6 nM. Turning to `CC(C)C[C@H](NC(=O)c1ccc2c(c1)OCO2)C(=O)N[C@H]1CCCN(Cc2ccccc2)CC1=O` [Example 1, benzo[1,3]dioxole-5-carboxylic acid [(S)-1-(1-benzyl-3-oxoazepan-4-ylcarbamoyl)-3-methyl-butyl]amide], the inhibitory constant (Ki) in assay [2] (read-out: Cruzain Ki) turned out to be 58 nM.
